Source: PubChem BioAssay (NCI)
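1) Cells in 96-well plates. 2) Compound, 48 h, 5 concentrations. 3) Linear interpolation between surrounding doses. 4) Unreached endpoint = highest concentration. GI50 marks 50% less growth. At the TGI there is no net growth.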

Assays:
Assay in all cases: growth of human tumour cells (NCI), 48 h
SK-MEL-28 melanoma = system: SK-MEL-28 melanoma
HCT-15 colon = system: HCT-15 colon
HCC-2998 colon = system: HCC-2998 colon
K-562 leukemia = system: K-562 leukemia
LOX IMVI melanoma = system: LOX IMVI melanoma
SK-OV-3 ovarian = system: SK-OV-3 ovarian
CAKI-1 renal = system: CAKI-1 renal
TK-10 renal = system: TK-10 renal
HT29 colon = system: HT29 colon
PC-3 prostate = system: PC-3 prostate

O=[N+]([O-])c1cc([N+](=O)[O-])c(C(Cl)C(Cl)c2ccccc2)cc1C(Cl)C(Cl)c1ccccc1 (stereo not drawn)
TGI (SK-MEL-28 melanoma): 3.95 µM
TGI (HCT-15 colon): 3.12 µM
TGI (HCC-2998 colon): 3.33 µM
TGI (K-562 leukemia): 3.58 µM
TGI (LOX IMVI melanoma): 3.57 µM
TGI (SK-OV-3 ovarian): 80.1 µM
TGI (CAKI-1 renal): 3.25 µM
TGI (TK-10 renal): 4.23 µM
TGI (HT29 colon): 4.67 µM

COc1cc2c3c(c1OCc1ccccc1)NCCC3NCC2 (stereo not drawn)
TGI (HCT-15 colon): > 100 µM
TGI (HCC-2998 colon): > 100 µM
TGI (K-562 leukemia): > 100 µM
TGI (LOX IMVI melanoma): > 100 µM
TGI (CAKI-1 renal): > 100 µM
TGI (TK-10 renal): > 100 µM
TGI (HT29 colon): > 100 µM

COc1cc(C2C(C(=O)OCc3ccccc3)=C(C)NC(C)=C2C(=O)OCc2ccccc2)cc(OC)c1OC
GI50 (SK-OV-3 ovarian): 4.78 µM
TGI (SK-OV-3 ovarian): > 100 µM
GI50 (CAKI-1 renal): 3.05 µM
TGI (CAKI-1 renal): > 100 µM
GI50 (PC-3 prostate): 1.48 µM
TGI (PC-3 prostate): > 100 µM
GI50 (HT29 colon): 3.35 µM
TGI (HT29 colon): > 100 µM

Cc1ccc(S(=O)(=O)NC(=O)C#CCOC2CCCCO2)cc1 (stereo not drawn)
TGI (SK-MEL-28 melanoma): > 100 µM
TGI (HCT-15 colon): > 100 µM
TGI (HCC-2998 colon): > 100 µM
TGI (K-562 leukemia): > 100 µM
TGI (LOX IMVI melanoma): > 100 µM
TGI (CAKI-1 renal): > 100 µM
TGI (TK-10 renal): > 100 µM
TGI (HT29 colon): > 100 µM

N#CC(C(=O)C(=O)Nc1ccc(Cl)c(Cl)c1)c1ccc(Cl)cc1 (stereo not drawn)
TGI (SK-MEL-28 melanoma): > 100 µM
TGI (HCT-15 colon): > 100 µM
TGI (HCC-2998 colon): > 100 µM
TGI (K-562 leukemia): 60.1 µM
TGI (LOX IMVI melanoma): 31.1 µM
TGI (SK-OV-3 ovarian): > 100 µM
TGI (CAKI-1 renal): > 100 µM
TGI (TK-10 renal): > 100 µM
TGI (HT29 colon): > 100 µM

COC(=O)C1=C(C)N(NC(=O)c2cccc(Cl)c2)C(C)(O)C12CCOC2=O (stereo not drawn)
TGI (SK-MEL-28 melanoma): > 100 µM
TGI (HCT-15 colon): > 100 µM
TGI (HCC-2998 colon): > 100 µM
TGI (K-562 leukemia): > 100 µM
TGI (LOX IMVI melanoma): > 100 µM
TGI (SK-OV-3 ovarian): > 100 µM
TGI (CAKI-1 renal): > 100 µM
TGI (HT29 colon): > 100 µM

CCOC(=O)NN(C(=O)OCC)C(C(=O)c1ccc(Cl)cc1)=C1NCCN1
TGI (SK-MEL-28 melanoma): > 100 µM
TGI (HCC-2998 colon): > 100 µM
TGI (K-562 leukemia): > 100 µM
TGI (LOX IMVI melanoma): > 100 µM
TGI (SK-OV-3 ovarian): > 100 µM
TGI (CAKI-1 renal): > 100 µM
TGI (TK-10 renal): > 100 µM
TGI (HT29 colon): > 100 µM

CCOC(=O)/C(=C/c1ccc(Cl)cc1)N(CC)CC
TGI (SK-MEL-28 melanoma): > 100 µM
TGI (HCT-15 colon): > 100 µM
TGI (HCC-2998 colon): > 100 µM
TGI (K-562 leukemia): > 100 µM
TGI (LOX IMVI melanoma): > 100 µM
TGI (SK-OV-3 ovarian): > 100 µM
TGI (CAKI-1 renal): > 100 µM
TGI (TK-10 renal): > 100 µM
TGI (HT29 colon): > 100 µM

O=C(NCCCCCCNC(=O)NC1OCC(O)C(O)C1O)NC1OCC(O)C(O)C1O (stereo not drawn)
TGI (SK-MEL-28 melanoma): > 100 µM
TGI (HCT-15 colon): > 100 µM
TGI (K-562 leukemia): > 100 µM
TGI (LOX IMVI melanoma): > 100 µM
TGI (SK-OV-3 ovarian): > 100 µM
TGI (CAKI-1 renal): > 100 µM
TGI (TK-10 renal): > 100 µM
TGI (HT29 colon): > 100 µM

CC(=O)OCc1c(C)c2ccccc2n1C(C)=O
TGI (SK-MEL-28 melanoma): > 100 µM
TGI (HCC-2998 colon): > 100 µM
TGI (K-562 leukemia): 71.5 µM
TGI (LOX IMVI melanoma): > 100 µM
TGI (SK-OV-3 ovarian): > 100 µM
TGI (CAKI-1 renal): > 100 µM
TGI (TK-10 renal): > 100 µM
TGI (HT29 colon): > 100 µM

CC1OC(n2cc(I)c(=O)[nH]c2=O)C=CC1=O (stereo not drawn)
TGI (SK-MEL-28 melanoma): 29.2 µM
TGI (HCT-15 colon): 32.3 µM
TGI (HCC-2998 colon): 31.5 µM
TGI (K-562 leukemia): 18 µM
TGI (LOX IMVI melanoma): 19.6 µM
TGI (SK-OV-3 ovarian): 73.2 µM
TGI (CAKI-1 renal): 29.5 µM
TGI (TK-10 renal): 32.9 µM
TGI (HT29 colon): 30.6 µM

O=C(NCc1cccs1)OC1CC2CCC1C2 (stereo not drawn)
TGI (SK-MEL-28 melanoma): > 100 µM
TGI (HCT-15 colon): > 100 µM
TGI (K-562 leukemia): > 100 µM
TGI (LOX IMVI melanoma): > 100 µM
TGI (SK-OV-3 ovarian): > 100 µM
TGI (CAKI-1 renal): > 100 µM
TGI (TK-10 renal): > 100 µM
TGI (PC-3 prostate): > 100 µM
TGI (HT29 colon): > 100 µM

C[CH2][Sn]([Cl])([CH2]C)[CH2]C
GI50 (SK-MEL-28 melanoma): 1.67 µM
TGI (SK-MEL-28 melanoma): 11.6 µM
GI50 (HCT-15 colon): 0.637 µM
TGI (HCT-15 colon): 5.79 µM
GI50 (HCC-2998 colon): 0.354 µM
TGI (HCC-2998 colon): 1.66 µM
GI50 (K-562 leukemia): 0.718 µM
TGI (K-562 leukemia): 5 µM
GI50 (LOX IMVI melanoma): 0.386 µM
TGI (LOX IMVI melanoma): 2.06 µM
GI50 (SK-OV-3 ovarian): 1.47 µM
TGI (SK-OV-3 ovarian): 5.8 µM
GI50 (TK-10 renal): 3.02 µM
TGI (TK-10 renal): 6.94 µM
GI50 (HT29 colon): 0.439 µM
TGI (HT29 colon): 2.62 µM

O=C(O)C1CCCCC1C(=O)Nc1nc2ccccc2[nH]1 (stereo not drawn)
TGI (SK-MEL-28 melanoma): > 100 µM
TGI (HCT-15 colon): > 100 µM
TGI (LOX IMVI melanoma): > 100 µM
TGI (SK-OV-3 ovarian): > 100 µM
TGI (CAKI-1 renal): > 100 µM
TGI (TK-10 renal): > 100 µM
TGI (PC-3 prostate): > 100 µM
TGI (HT29 colon): > 100 µM

NC(=O)OCC(COc1ccc(Cl)cc1)OC(=O)c1cc([N+](=O)[O-])cc([N+](=O)[O-])c1 (stereo not drawn)
TGI (SK-MEL-28 melanoma): > 100 µM
TGI (HCT-15 colon): > 100 µM
TGI (HCC-2998 colon): > 100 µM
TGI (K-562 leukemia): > 100 µM
TGI (LOX IMVI melanoma): 34.4 µM
TGI (SK-OV-3 ovarian): > 100 µM
TGI (CAKI-1 renal): > 100 µM
TGI (TK-10 renal): > 100 µM
TGI (HT29 colon): > 100 µM

O=C1C2C3CCC(C2C(=O)N1CO)C1C2C(=O)N(CO)C(=O)C2C31 (stereo not drawn)
TGI (SK-MEL-28 melanoma): > 100 µM
TGI (HCT-15 colon): > 60.4 µM
TGI (HCC-2998 colon): > 100 µM
TGI (K-562 leukemia): > 75.2 µM
TGI (LOX IMVI melanoma): > 61.9 µM
TGI (SK-OV-3 ovarian): > 100 µM
TGI (CAKI-1 renal): > 100 µM
TGI (TK-10 renal): > 100 µM
TGI (HT29 colon): > 100 µM

CC1=C2[C@@H](c3ccccc3)C3C=CC2(c2ccccc23)N(C(=O)Nc2cccc3ccccc23)C1=O (stereo partly drawn)
TGI (SK-MEL-28 melanoma): > 100 µM
TGI (HCT-15 colon): > 100 µM
TGI (HCC-2998 colon): > 100 µM
TGI (K-562 leukemia): > 100 µM
TGI (LOX IMVI melanoma): > 100 µM
TGI (SK-OV-3 ovarian): > 100 µM
TGI (CAKI-1 renal): > 100 µM

O=c1[nH]c(=O)n(C2OC(CO)C(O)C2O)cc1OCc1ccccc1 (stereo not drawn)
TGI (SK-MEL-28 melanoma): > 100 µM
TGI (HCT-15 colon): > 77.7 µM
TGI (HCC-2998 colon): > 100 µM
TGI (K-562 leukemia): > 100 µM
TGI (LOX IMVI melanoma): > 31.6 µM
TGI (SK-OV-3 ovarian): > 100 µM
TGI (CAKI-1 renal): > 100 µM
TGI (TK-10 renal): > 100 µM
TGI (HT29 colon): > 100 µM

CN/N=C(/CC(=O)c1sc(-n2nc(-c3ccccc3)cc2-c2ccccc2)nc1C)C(=O)Nc1ccc(Cl)c(Cl)c1
TGI (SK-MEL-28 melanoma): > 100 µM
TGI (HCT-15 colon): > 100 µM
TGI (HCC-2998 colon): > 100 µM
TGI (K-562 leukemia): > 100 µM
TGI (LOX IMVI melanoma): > 100 µM
TGI (SK-OV-3 ovarian): > 100 µM
TGI (CAKI-1 renal): > 100 µM
TGI (HT29 colon): > 100 µM

Cc1nn(-c2ccccc2)c(C)c1/C=N/N1CCN(Cc2ccccc2)CC1
GI50 (SK-MEL-28 melanoma): 80.5 µM
TGI (SK-MEL-28 melanoma): > 100 µM
GI50 (HCT-15 colon): 30.4 µM
TGI (HCT-15 colon): > 100 µM
GI50 (K-562 leukemia): 31.2 µM
TGI (K-562 leukemia): > 100 µM
GI50 (LOX IMVI melanoma): 44 µM
TGI (LOX IMVI melanoma): > 100 µM
GI50 (CAKI-1 renal): > 100 µM
TGI (CAKI-1 renal): > 100 µM
GI50 (TK-10 renal): 28.7 µM
TGI (TK-10 renal): > 100 µM
GI50 (PC-3 prostate): 25.2 µM
TGI (PC-3 prostate): 96.5 µM
GI50 (HT29 colon): 43 µM
TGI (HT29 colon): > 100 µM

O=c1nc(-c2ccccc2)scc1-c1ccccc1
TGI (SK-MEL-28 melanoma): > 100 µM
TGI (HCT-15 colon): > 100 µM
TGI (K-562 leukemia): > 100 µM
TGI (SK-OV-3 ovarian): > 100 µM
TGI (CAKI-1 renal): > 100 µM
TGI (TK-10 renal): > 100 µM
TGI (HT29 colon): > 100 µM

O=C(O)CP(=O)(c1ccccc1)c1ccccc1.O=C(O)CP(=O)(c1ccccc1)c1ccccc1.[Cd]
GI50 (SK-MEL-28 melanoma): 17.9 µM
TGI (SK-MEL-28 melanoma): 41.8 µM
GI50 (HCT-15 colon): 9.21 µM
TGI (HCT-15 colon): 22.9 µM
GI50 (K-562 leukemia): 15.1 µM
TGI (K-562 leukemia): 36.8 µM
GI50 (SK-OV-3 ovarian): 20.2 µM
TGI (SK-OV-3 ovarian): 44.5 µM
GI50 (CAKI-1 renal): 22.7 µM
TGI (CAKI-1 renal): 38.9 µM
GI50 (TK-10 renal): 16.9 µM
TGI (TK-10 renal): 34.5 µM
GI50 (PC-3 prostate): 18 µM
TGI (PC-3 prostate): 35.1 µM
GI50 (HT29 colon): 18 µM
TGI (HT29 colon): 37.3 µM

CCCCCCCCCCCCCC(=O)OC1C(CO)OC(=O)C1O (stereo not drawn)
TGI (HCT-15 colon): > 100 µM
TGI (HCC-2998 colon): > 100 µM
TGI (K-562 leukemia): > 100 µM
TGI (LOX IMVI melanoma): > 100 µM
TGI (SK-OV-3 ovarian): > 100 µM
TGI (CAKI-1 renal): > 100 µM
TGI (TK-10 renal): > 100 µM
TGI (HT29 colon): > 100 µM
